Data: patent publication EP4471049A1 (Zealand Pharma A/S, priority 2023, dated 2024)
Like-named read-outs stand apart in the source and are kept apart here. *1 amine or outer side, *2 acyl side, *3 side chain or, on linkers, in order; H or OH if unused. Where a SMILES comes first, the peptide text is derived from it. Bridges are numbered along the chain shown (N, C = ends). [ ]: non-standard residue; d: D form. 2Nal = N[C@@H](Cc1ccc2ccccc2c1)C(=O)O; AEF = NCCOc1ccc(C[C@H](N)C(=O)O)cc1; X1 = O=C(Cc1ccc(CN[*:1])cc1)[*:2]; 3Pal = N[C@@H](Cc1cccnc1)C(=O)O; αMeL = CC(C)C[C@](C)(N)C(=O)O; Dab = NCC[C@H](N)C(=O)O; Sar = CNCC(=O)O

Tests used:
[1] = biological target: IL-23 mediated STAT3 signalling (Homo sapiens, UniProt Q5VWK5); assay: Functional inhibition of IL-23 mediated STAT3 signalling (phospho-STAT3 Tyr705 MSD, DB cells); assay type: cell-based
Protocol: The ability of compounds to inhibit IL-23 mediated signalling was determined in the human-derived DB cell line (CRL-2289) (hereafter referred to as DB cells), which endogenously expresses the human IL-23R and human IL-12R β1 subunits. Upon binding of IL-23, the IL-23R forms a heterodimer signalling complex together with IL-12R β1, which through the JAK2/STAT3 pathway promotes phosphorylation of STAT3 to form phospho-STAT3. In the assay, the functional antagonism of IL-23 mediated phospho-STAT3 formation in DB cells by the compound is quantified using reagents capable of measuring the phosphorylation state of Tyr705 of STAT3 in the form of a phospho-STAT3 (Tyr705) MSD (Meso Scale Discovery) kit.
[…]. For compounds tested in this assay, the response was normalized relative to control values to calculate the IC50 and maximal inhibitory response from a concentration response curve of the compound in presence of a fixed concentration of human IL-23.
The assay procedure was as follows. DB cells were maintained in growth medium consisting of RPMI-1640 [Invitrogen 61870-010] supplemented with 10% V/V Foetal Bovine Serum (FBS) [(heat inactivated), Invitrogen 10270-106], and 1% V/V Penicillin-Streptomycin (Pen-Strep) Solution [Invitrogen 15140]. On the day of assay, cells were resuspended in Assay buffer consisting of RPMI-1640 [Invitrogen 61870-010] supplemented with 0.1 % w/V BSA [Sigma-Aldrich A9430] to a density of 7.5x10^6 cells/mL. Compounds to be tested for inhibition of hIL-23 mediated signalling were serially diluted in Assay buffer to 3X the final concentration. A solution of hIL-23 corresponding to 3X the EC80 of hIL-23 (1.7 nM) was also prepared in Assay buffer. To initiate the assay, 20 µL of DB cell suspension (corresponding to 150.000 cells/well) was added to the wells of a 96-well V-bottom Polypropylene plate [Corning 3363] followed by addition of 3X 20 µL of the diluted test compounds to separate wells. Following preincubation of the DB cells with inhibitor for 15 min in a cell incubator (37 °C, 5% CO2), 20 µL of the prepared 3X the EC80 of hIL-23 solution was added to each well and incubated for 90 min in a cell incubator (37 °C, 5% CO2). For some wells buffer only or IL-23 only corresponding to the EC80 was added to obtain readouts needed for normalization. To terminate the assay, the plate was spun at 1000 G for 5 min to pellet cells, the supernatant removed using an 8-channel manual pipette, and then added 50 µL/well Complete Lysis Buffer from the MSD STAT3 kit (Cat# K150SVD, Mesoscale) to the cell pellet. To completely lyse cells to release phospho-STAT3 for detection, the plate was shaken for 10 min at room temperature (500 rpm) sealed with aluminium foil and placed at -80 °C for a minimum of 15 min. Detection of the phospho-STAT3 level in the cell lysate from the individual wells was determined using the MSD STAT3 kit (Cat# K150SVD, Mesoscale) and read on a Meso QuickPlex SQ 120 plate reader (Mesoscale).
For data analysis raw data counts from the Meso QuickPlex SQ 120 plate reader were normalized relative to the response by the EC80 of hIL-23 alone (no compound added) and the buffer level. Compound potency (IC50) and maximal inhibitory response (% inhibition) were estimated by computer-aided curve fitting using a 4-parameter logistic (4PL) non-linear model. […]. Typically compounds with a low IC50 are desired. Typically compounds capable of completely inhibiting the IL23-induced response are desired. […]. Table 3-2: hIL-23 (pSTAT3) antagonist IC50 and % inhibition data

[2] = Peptide stability in simulated intestinal fluid (SIF); assay type: in vitro ADME; details: for remaining at 1 h, 10 µM / remaining at 4 h, 10 µM: pig, simulated intestinal fluid (SIF) with porcine pancreatin
How it was run: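 Peptides were incubated at 37 °C with gentle shaking in pH 6.8 potassium phosphate SIF containing porcine pancreatin (10 g/L). Supernatants were analysed by LC-HRMS. Percent remaining at each timepoint, including 4 h, was calculated relative to time zero from absolute peak areas.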

[3] = 37 °C, pH 6.8, porcine pancreatin 10 g/L, 10 µM
[4] = Example 2 (Tables 2-1 to 2-4), read-out: IC50 (pSTAT3)
[5] = 4 h, 37 °C, pH 6.8, porcine pancreatin 10 g/L, 10 µM
[6] = pH 6.8, Example 2 (Tables 2-1 to 2-4), intact peptide remaining after 4 h, read-out: SIF (% after 4 h)

Sequence of IL-23 mediated STAT3 signalling (Q5VWK5 24-629 limits assumed): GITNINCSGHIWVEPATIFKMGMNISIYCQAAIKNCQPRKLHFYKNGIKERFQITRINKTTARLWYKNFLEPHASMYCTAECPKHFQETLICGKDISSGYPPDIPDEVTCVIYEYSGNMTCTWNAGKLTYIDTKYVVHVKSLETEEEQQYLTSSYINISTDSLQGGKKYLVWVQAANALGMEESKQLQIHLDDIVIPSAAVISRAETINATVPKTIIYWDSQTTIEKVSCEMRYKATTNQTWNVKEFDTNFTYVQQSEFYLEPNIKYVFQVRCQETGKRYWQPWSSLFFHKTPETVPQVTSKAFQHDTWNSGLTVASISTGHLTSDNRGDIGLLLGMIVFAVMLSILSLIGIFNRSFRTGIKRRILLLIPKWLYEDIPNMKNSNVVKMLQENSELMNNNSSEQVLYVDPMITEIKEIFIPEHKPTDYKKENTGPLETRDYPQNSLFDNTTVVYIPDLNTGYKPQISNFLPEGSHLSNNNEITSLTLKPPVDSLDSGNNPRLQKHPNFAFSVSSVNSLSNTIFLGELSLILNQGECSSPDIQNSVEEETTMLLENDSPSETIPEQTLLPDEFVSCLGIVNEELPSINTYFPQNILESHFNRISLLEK

SMILES	IC50 ([1]; Table 3-2, EC80 of hIL-23, read-out: hIL-23 (pSTAT3) antagonist IC50) [nM]	remaining at 1 h, 10 µM [2, 3] [%]	remaining at 4 h, 10 µM ([2]; 4 h, 37 °C, pH 6.8, porcine pancreatin 10 g/L, 10 µM, read-out: SIF (% remaining 4 h)) [%]	IC50 [1, 4] [nM]	SIF (% remaining 4 h) [2, 5] [%]	SIF (% after 4 h) ([2]; Example 2 (Tables 2-1 to 2-4), intact peptide remaining after 4 h) [%]	remaining at 4 h, 10 µM [2, 6] [%]
CC(C)C[C@]1(C)NC(=O)[C@H](Cc2ccc3ccccc3c2)NC(=O)[C@H](Cc2ccc(OCCN)cc2)NC(=O)[C@@H]2CCNC(=O)CC[C@H](NC(=O)[C@H](CO)NC(=O)Cc3ccc(cc3)CNC(=O)CC[C@@H](C(=O)N[C@@H](CCN)C(=O)N[C@@H](Cc3c[nH]cn3)C(=O)N[C@@H](Cc3cccnc3)C(N)=O)NC1=O)C(=O)N[C@@H](Cc1c[nH]c3ccccc13)C(=O)N[C@@H](CCC(N)=O)C(=O)N2 [Compound 12, [4-Aminomethyl-phenylacetyl](1c)*SE(2c)WQ[Dab](2c)[Y(2-aminoethoxy)][2-Nal][2-Me-Leu]E(1c)[Dab]H[3-(3-Pyridyl)-Ala]-[NH2]] ([X1]SEWQ[Dab][AEF][2Nal][αMeL]E[Dab]H[3Pal]-NH2; lactam 3-6, N-10)	3.5	60	2				
CC(C)C[C@]1(C)NC(=O)[C@H](Cc2ccc3ccccc3c2)NC(=O)[C@H](Cc2ccc(OCCN)cc2)NC(=O)[C@@H]2CCNC(=O)CC[C@H](NC(=O)[C@H](CO)NC(=O)Cc3ccc(cc3)CNC(=O)CC[C@@H](C(=O)N[C@@H](CCN)C(=O)NCCc3cccnc3)NC1=O)C(=O)N[C@@H](Cc1c[nH]c3ccccc13)C(=O)N[C@@H](CCC(N)=O)C(=O)N2 [Compound 7, [4-Aminomethyl-phenylacetyl](1c)*SE(2c)WQ[Dab](2c)[Y(2-aminoethoxy)][2-Nal][2-Me-Leu]E(1c)[Dab]-[NH-(2-(pyridin-3-yl)ethyl)]]				0.13	130	130	
CC(C)C[C@]1(C)NC(=O)[C@H](Cc2ccc3ccccc3c2)NC(=O)[C@H](Cc2ccc(OCCN)cc2)NC(=O)[C@@H]2CCNC(=O)CC[C@H](NC(=O)[C@H](CO)NC(=O)Cc3ccc(cc3)CNC(=O)CC[C@@H](C(=O)N[C@@H](CCN)C(=O)N[C@@H](Cc3cccnc3)C(=O)N(C)CC(N)=O)NC1=O)C(=O)N[C@@H](Cc1c[nH]c3ccccc13)C(=O)N[C@@H](CCC(N)=O)C(=O)N2 [Compound 9, [4-Aminomethyl-phenylacetyl](1c)*SE(2c)WQ[Dab](2c)[Y(2-aminoethoxy)][2-Nal][2-Me-Leu]E(1c)[Dab][3-(3-Pyridyl)-Ala][Sar]-[NH2]] ([X1]SEWQ[Dab][AEF][2Nal][αMeL]E[Dab][3Pal][Sar]-NH2; lactam 3-6, N-10)				0.025			105
CNC(=O)[C@H](Cc1cccnc1)NC(=O)[C@H](CCN)NC(=O)[C@@H]1CCC(=O)NCc2ccc(cc2)CC(=O)N[C@@H](CO)C(=O)N[C@H]2CCC(=O)NCC[C@H](NC(=O)[C@H](CCC(N)=O)NC(=O)[C@H](Cc3c[nH]c4ccccc34)NC2=O)C(=O)N[C@@H](Cc2ccc(OCCN)cc2)C(=O)N[C@@H](Cc2ccc3ccccc3c2)C(=O)N[C@@](C)(CC(C)C)C(=O)N1 [Compound 8, [4-Aminomethyl-phenylacetyl](1c)*SE(2c)WQ[Dab](2c)[Y(2-aminoethoxy)][2-Nal][2-Me-Leu]E(1c)[Dab][3-(3-Pyridyl)-Ala]-[NHMe]]				0.053			105
CC(C)C[C@]1(C)NC(=O)[C@H](Cc2ccc3ccccc3c2)NC(=O)[C@H](Cc2ccc(OCCN)cc2)NC(=O)[C@@H]2CCNC(=O)CC[C@H](NC(=O)[C@H](CO)NC(=O)Cc3ccc(cc3)CNC(=O)CC[C@@H](C(=O)N[C@@H](CCN)C(=O)N(C)[C@@H](Cc3cccnc3)C(N)=O)NC1=O)C(=O)N[C@@H](Cc1c[nH]c3ccccc13)C(=O)N[C@@H](CCC(N)=O)C(=O)N2 [Compound 4, [4-Aminomethyl-phenylacetyl](1c)*SE(2c)WQ[Dab](2c)[Y(2-aminoethoxy)][2-Nal][2-Me-Leu]E(1c)[Dab][N-Me-3-(3-Pyridyl)-Ala]-[NH2]]				6.5			89
CC(C)C[C@]1(C)NC(=O)[C@H](Cc2ccc3ccccc3c2)NC(=O)[C@H](Cc2ccc(OCCN)cc2)NC(=O)[C@@H]2CCNC(=O)CC[C@H](NC(=O)[C@H](CO)NC(=O)Cc3ccc(cc3)CNC(=O)CC[C@@H](C(=O)N[C@@H](CCN)C(=O)N[C@@](C)(Cc3cccnc3)C(N)=O)NC1=O)C(=O)N[C@@H](Cc1c[nH]c3ccccc13)C(=O)N[C@@H](CCC(N)=O)C(=O)N2 [Compound 3, [4-Aminomethyl-phenylacetyl](1c)*SE(2c)WQ[Dab](2c)[Y(2-aminoethoxy)][2-Nal][2-Me-Leu]E(1c)[Dab][2-Me-3-(3-Pyridyl)-Ala]-[NH2]]		115		1.7			109
CC(C)C[C@]1(C)NC(=O)[C@H](Cc2ccc3ccccc3c2)NC(=O)[C@H](Cc2ccc(OCCN)cc2)NC(=O)[C@@H]2CCNC(=O)CC[C@H](NC(=O)[C@H](CO)NC(=O)Cc3ccc(cc3)CNC(=O)CC[C@@H](C(=O)N[C@@H](CCN)C(=O)N[C@H](Cc3cccnc3)C(N)=O)NC1=O)C(=O)N[C@@H](Cc1c[nH]c3ccccc13)C(=O)N[C@@H](CCC(N)=O)C(=O)N2 [Compound 5, [4-Aminomethyl-phenylacetyl](1c)*SE(2c)WQ[Dab](2c)[Y(2-aminoethoxy)][2-Nal][2-Me-Leu]E(1c)[Dab][{d}3-(3-Pyridyl)-Ala]-[NH2]]				2.1	41		41
CC(C)C[C@]1(C)NC(=O)[C@H](Cc2ccc3ccccc3c2)NC(=O)[C@H](Cc2ccc(OCCN)cc2)NC(=O)[C@@H]2CCNC(=O)CC[C@H](NC(=O)[C@H](CO)NC(=O)Cc3ccc(cc3)CNC(=O)CC[C@@H](C(=O)N[C@@H](CCN)C(=O)N[C@H](Cc3c[nH]cn3)C(N)=O)NC1=O)C(=O)N[C@@H](Cc1c[nH]c3ccccc13)C(=O)N[C@@H](CCC(N)=O)C(=O)N2 [Compound 13, [4-Aminomethyl-phenylacetyl](1c)*SE(2c)WQ[Dab](2c)[Y(2-aminoethoxy)][2-Nal][2-Me-Leu]E(1c)[Dab][{d}H]-[NH2]]				6.8	56		56
CC(C)C[C@]1(C)NC(=O)[C@H](Cc2ccc3ccccc3c2)NC(=O)[C@H](Cc2ccc(OCCN)cc2)NC(=O)[C@@H]2CCNC(=O)CC[C@H](NC(=O)[C@H](CO)NC(=O)Cc3ccc(cc3)CNC(=O)CC[C@@H](C(=O)N[C@@H](CCN)C(=O)N[C@@H](Cc3cccnc3)C(=O)N[C@H](Cc3c[nH]cn3)C(N)=O)NC1=O)C(=O)N[C@@H](Cc1c[nH]c3ccccc13)C(=O)N[C@@H](CCC(N)=O)C(=O)N2 [Compound 10, [4-Aminomethyl-phenylacetyl](1c)*SE(2c)WQ[Dab](2c)[Y(2-aminoethoxy)][2-Nal][2-Me-Leu]E(1c)[Dab][3-(3-Pyridyl)-Ala][{d}H]-[NH2]] ([X1]SEWQ[Dab][AEF][2Nal][αMeL]E[Dab][3Pal][dH]-NH2; lactam 3-6, N-10)		34		0.038	11		11
